target: T1, Human NK1 Receptor (Homo sapiens, UniProt P25103); assay: In Vitro Human NK1 Receptor Binding Assay ([125I]Bolton-Hunter substance P displacement, IM9 cells); settings: Human lymphoma IM9 cells, [125I]Bolton-Hunter substance P (0.05-0.1 nM), 50 min at 21° C.; Table 1; read-out: NK1 binding IC50
T1 construct: endogenous in cells; host or cells: Human lymphoma IM9 cells (whole cells)
Method: They have been evaluated in an NK1-receptor binding assay which is described below.
Human lymphoma IM9 cells were grown in RPMI 1640 culture medium supplemented with 10% fetal calf serum and 2 mM glutamine and maintained under an atmosphere of 5% CO2. Cells were passaged every 3-4 days by reseeding to a concentration of 4-8×10^6/40 ml per 175 cm^2 flask. Cells were harvested for experiments by centrifugation at 1000 g for 3 min. Pelleted cells were washed once by resuspension into assay buffer (50 mM Tris HCl pH 7.4, 3 mM MnCl2, 0.02% BSA, […] bacitracin, […] chymostatin, 2 mM phosphoramidon, […] leupeptin) and repeating the centrifugation step before resuspending at a concentration of 2.5×10^6 cells/mL assay buffer. Cells ([…]) were incubated with [^125I]Bolton-Hunter substance P (0.05-0.1 nM) in the presence and absence of varying concentrations of test compounds for 50 min at 21° C. Non-specific binding (10% of the total binding observed under these conditions) was defined by […] [Sar^9, Met(02)^11] substance P. Reactions were terminated by rapid filtration under vacuum onto GF\C filters presoaked in 0.2% PEI for 1-2 h, using a Brandel cell harvester. Filters were washed with 6×1 ml ice-cold Tris HCl (50 mM, pH 7.4) and radioactivity bound determined using a gamma couter. Results were analyzed using iterative curve fitting procedures in RS1 or Graphpad Inplot.

T1 sequence (P25103 whole entry): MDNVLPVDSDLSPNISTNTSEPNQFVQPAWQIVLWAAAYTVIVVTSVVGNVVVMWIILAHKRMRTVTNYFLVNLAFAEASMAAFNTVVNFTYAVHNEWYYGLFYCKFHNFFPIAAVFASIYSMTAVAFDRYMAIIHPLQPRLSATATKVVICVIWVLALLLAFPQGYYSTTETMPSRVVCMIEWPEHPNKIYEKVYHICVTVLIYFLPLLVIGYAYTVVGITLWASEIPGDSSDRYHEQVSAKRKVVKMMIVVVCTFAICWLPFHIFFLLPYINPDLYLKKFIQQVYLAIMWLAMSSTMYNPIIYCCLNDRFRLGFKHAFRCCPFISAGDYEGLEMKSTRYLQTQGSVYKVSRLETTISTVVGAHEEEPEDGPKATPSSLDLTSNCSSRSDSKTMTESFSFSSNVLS

Question: C[C@H](NC(=O)[C@@H](Cc1c[nH]c2ccccc12)NCc1cccc(O)c1)c1ccccc1 (relative stereo) [Example 17, 2-(3-Hydroxy-benzylamino)-3-(1H-indol-3-yl)-N-(1-phenyl-ethyl)-propionamide, [R-(R*,S*)]] was tested. Which IC50 did it give?
Answer: 344 nM

Question: How did the IC50 turn out when C[C@H](NC(=O)[C@@H](Cc1c[nH]c2ccccc12)NCc1cc2ccccc2o1)c1ccccc1 (relative stereo) [Example 6, 2-[(Benzofuran-2-ylmethyl)-amino]-3-(1H-indol-3-yl)-N-(1-phenyl-ethyl)-propionamide, [R-(R*,S*)]] was run?
Answer: 0.7 nM

Question: C[C@H](NC(=O)[C@@](C)(Cc1c[nH]c2ccccc12)NCc1ccn[nH]1)c1ccccc1 (relative stereo) [Example 21, 3-(1H-Indol-3-yl)-2-methyl-N-(1-phenyl-ethyl)-2-[(2H-pyrazol-3-ylmethyl)-amino]-propionamide, [R-(R*,S*)]] was tested. Which IC50 did it give?
Answer: 1810 nM

same assay, conditions: Human lymphoma IM9 cells, [125I]Bolton-Hunter substance P; Table 3, array-synthesis products; read-out: IC50 (nM) hNK1

Question: With O=C(NCCc1cccs1)C(Cc1c[nH]c2ccccc12)NCc1cc2ccccc2o1 (stereo not drawn) [Example 247, 2-[(Benzofuran-2-ylmethyl)-amino]-3-(1H-indol-3-yl)-N-(2-thiophen-2-yl-ethyl)-propionamide] as the compound, how does the IC50 read?
Answer: 56 nM

Question: Which IC50 does the source give for CC(Cc1c[nH]c2ccccc12)NC(=O)C(Cc1c[nH]c2ccccc12)NCc1cc2ccccc2o1 (stereo not drawn) [Example 297, 2-[(Benzofuran-2-ylmethyl)-amino]-3-(1H-indol-3-yl)-N-[2-(1H-indol-3-yl)-1-methyl-ethyl]-propionamide] here?
Answer: 3610 nM

Question: With O=C(NCCc1c[nH]c2ccccc12)C(Cc1c[nH]c2ccccc12)NCc1cc2ccccc2o1 (stereo not drawn) [Example 280, 2-[(Benzofuran-2-ylmethyl)-amino]-3-(1H-indol-3-yl)-N-[2-(1H-indol-3-yl)-ethyl]-propionamide] as the compound, how does the IC50 read?
Answer: 2540 nM

Question: With O=C(NCc1cc(Cl)sc1Cl)C(Cc1c[nH]c2ccccc12)NCc1cc2ccccc2o1 (stereo not drawn) [Example 215, 2-[(Benzofuran-2-ylmethyl)-amino]-N-(2,5-dichloro-thiophen-3-ylmethyl)-3-(1H-indol-3-yl)-propionamide] as the compound, how does the IC50 read?
Answer: 70 nM

Question: For O=C(NCc1ccco1)C(Cc1c[nH]c2ccccc12)NCc1cc2ccccc2o1 (stereo not drawn) [Example 261, 2-[(Benzofuran-2-ylmethyl)-amino]-N-furan-2-ylmethyl-3-(1H-indol-3-yl)-propionamide], which IC50 is on record?
Answer: 406 nM

Question: O=C(NCCc1ccc(Cl)cc1)C(Cc1c[nH]c2ccccc12)NCc1cc2ccccc2o1 (stereo not drawn) [Example 288, 2-[(Benzofuran-2-ylmethyl)-amino]-N-[2-(4-chloro-phenyl)-ethyl]-3-(1H-indol-3-yl)-propionamide] was tested. Which IC50 did it give?
Answer: 136 nM

Question: With O=C(NCc1cc(F)cc(C(F)(F)F)c1)C(Cc1c[nH]c2ccccc12)NCc1cc2ccccc2o1 (stereo not drawn) [Example 303, 2-[(Benzofuran-2-ylmethyl)-amino]-N-(3-fluoro-5-trifluoromethyl-benzyl)-3-(1H-indol-3-yl)-propionamide] as the compound, how does the IC50 read?
Answer: 17 nM

Question: With O=C(NCc1cc(C(F)(F)F)cc(C(F)(F)F)c1)C(Cc1c[nH]c2ccccc12)NCc1cc2ccccc2o1 (stereo not drawn) [Example 218, 2-[(Benzofuran-2-ylmethyl)-amino]-N-(3,5-bis-trifluoromethyl-benzyl)-3-(1H-indol-3-yl)-propionamide] as the compound, how does the IC50 read?
Answer: 294 nM

Question: For COc1cccc(CCNC(=O)C(Cc2c[nH]c3ccccc23)NCc2cc3ccccc3o2)c1 (stereo not drawn) [Example 291, 2-[(Benzofuran-2-ylmethyl)-amino]-3-(1H-indol-3-yl)-N-[2-(3-methoxy-phenyl)-ethyl]-propionamide], which IC50 is on record?
Answer: 1340 nM

same assay, conditions: Table 4; [125I]Bolton-Hunter substance P displacement, human IM9 cells; read-out: IC50 (nM) hNK1

Question: How did the IC50 turn out when CC(NC(=O)C(C)(Cc1c[nH]c2ccccc12)NCc1ccncc1)c1ccccc1 (stereo not drawn) [compound 359, 3-(1H-Indol-3-yl)-2-methyl-N-(1-phenyl-ethyl)-2-[(pyridin-4-ylmethyl)-amino]-propionamide] was run?
Answer: 3710 nM

Question: With CC(NC(=O)C(C)(Cc1c[nH]c2ccccc12)NCc1ccc(-c2ccccc2)cc1)c1ccccc1 (stereo not drawn) [compound 348, 2-[(Biphenyl-4-ylmethyl)-amino]-3-(1H-indol-3-yl)-2-methyl-N-(1-phenyl-ethyl)-propionamide] as the compound, how does the IC50 read?
Answer: 5560 nM

Question: Which IC50 does the source give for CC(NC(=O)C(C)(Cc1c[nH]c2ccccc12)NCc1ccc(Oc2ccccc2)cc1)c1ccccc1 (stereo not drawn) [compound 347, 3-(1H-Indol-3-yl)-2-methyl-2-(4-phenoxy-benzylamino)-N-(1-phenyl-ethyl)-propionamide] here?
Answer: 3380 nM

Question: With CC(NC(=O)C(C)(Cc1c[nH]c2ccccc12)NCc1ccccn1)c1ccccc1 (stereo not drawn) [compound 310, 3-(1H-Indol-3-yl)2-methyl-N-(1-phenyl-ethyl)-2-[(pyridin-2-ylmethyl)-amino]-propionamide] as the compound, how does the IC50 read?
Answer: 3320 nM

same assay, conditions: Table 5; [125I]Bolton-Hunter substance P displacement, human IM9 cells; read-out: IC50 (nM) hNK1

Question: With CC(NC(=O)C(Cc1c[nH]c2ccccc12)NCc1ccc2c(c1)Cc1ccccc1-2)c1ccccc1 (stereo not drawn) [compound 391] as the compound, how does the IC50 read?
Answer: 846 nM

Question: For COC(=O)c1ccc(CNC(Cc2c[nH]c3ccccc23)C(=O)NC(C)c2ccccc2)cc1 (stereo not drawn) [compound 374], which IC50 is on record?
Answer: 1910 nM

Question: With CC(NC(=O)C(Cc1c[nH]c2ccccc12)NCc1ccccn1)c1ccccc1 (stereo not drawn) [compound 395] as the compound, how does the IC50 read?
Answer: > 10000 nM

same assay, conditions: human NK1 receptor, IM9 cells, [125I]Bolton-Hunter substance P; read-out: IC50 (nM) hNK1

Question: CC(NC(=O)C(C)(Cc1c[nH]c2ccccc12)NCc1cc2ccccc2o1)C1=CCCO1 (stereo not drawn) [compound 146, 2-[(Benzofuran-2-ylmethyl)-amino]-N-[1-(4,5-dihydro-furan-2-yl)-ethyl]-3-(1H-indol-3-yl)-2-methyl-propionamide] was tested. Which IC50 did it give?
Answer: 3590 nM

Question: Which IC50 does the source give for CC(Cc1c[nH]c2ccccc12)(NCc1cc2ccccc2o1)C(=O)NCC1CCCCC1O (stereo not drawn) [compound 184, 2-[(Benzofuran-2-ylmethyl)-amino]-N-(2-hydroxy-cyclohexylmethyl)-3-(1H-indol-3-yl)-2-methyl-propionamide] here?
Answer: > 10000 nM

Question: How did the IC50 turn out when CC(Cc1c[nH]c2ccccc12)(NCc1cc2ccccc2o1)C(=O)NCC1CCNC1 (stereo not drawn) [compound 154, 2-[(Benzofuran-2-ylmethyl)-amino]-3-(1H-indol-3-yl)-2-methyl-N-pyrrolidin-3-ylmethyl-propionamide] was run?
Answer: > 10000 nM

Question: How did the IC50 turn out when CC(Cc1c[nH]c2ccccc12)(NCc1cc2ccccc2o1)C(=O)NCCN1CCCCC1 (stereo not drawn) [compound 125, 2-[(Benzofuran-2-ylmethyl)-amino]-3-(1H-indol-3-yl)-2-methyl-N-(2-piperidin-1-yl-ethyl)-propionamide] was run?
Answer: > 10000 nM

Question: Which IC50 does the source give for CC(Cc1c[nH]c2ccccc12)(NCc1cc2ccccc2o1)C(=O)NCC(=O)c1ccccc1 (stereo not drawn) [compound 163, 2-[(Benzofuran-2-ylmethyl)-amino]-3-(1H-indol-3-yl)-2-methyl-N-(2-oxo-2-phenyl-ethyl)-propionamide] here?
Answer: 166 nM

Question: Which IC50 does the source give for CC(Cc1c[nH]c2ccccc12)(NCc1cc2ccccc2o1)C(=O)NC1(CO)CCCC1 (stereo not drawn) [compound 144, 2-[(Benzofuran-2-ylmethyl)-amino]-N-(1-hydroxymethyl-cyclopentyl)-3-(1H-indol-3-yl)-2-methyl-propionamide] here?
Answer: > 10000 nM

Question: How did the IC50 turn out when CN(C)c1ccc(CNC(=O)C(C)(Cc2c[nH]c3ccccc23)NCc2cc3ccccc3o2)cc1 (stereo not drawn) [compound 60, 2-[(Benzofuran-2-ylmethyl)-amino]-N-(4-dimethylamino-benzyl)-3-(1H-indol-3-yl)-2-methyl-propionamide] was run?
Answer: 964 nM

Question: How did the IC50 turn out when CC(Cc1c[nH]c2ccccc12)(NCc1cc2ccccc2o1)C(=O)NCc1ccccn1 (stereo not drawn) [compound 23, 2-[(Benzofuran-2-ylmethyl)-amino]-3 (1H-indol-3-yl)-2-methyl-N-pyridin-2 ylmethyl-propionamide] was run?
Answer: 1280 nM

Question: Which IC50 does the source give for CC(NC(=O)C(C)(Cc1c[nH]c2ccccc12)NCc1cc2ccccc2o1)c1ccccc1 (stereo not drawn) [compound 42, 2-[(Benzofuran-2-ylmethyl)-amino]-3-(1H-indol-3-yl)-2-methyl-N-(1-phenyl-ethyl)-propionamide] here?
Answer: 261 nM

Question: With CC(Cc1c[nH]c2ccccc12)(NCc1cc2ccccc2o1)C(=O)NCc1nc2ccccc2[nH]1 (stereo not drawn) [compound 103, 2-[(Benzofuran-2-ylmethyl)-amino]-N-(1H-benzoimidazol-2-ylmethyl)-3-(1H-indol-3-yl)-2-methyl-propionamide] as the compound, how does the IC50 read?
Answer: 74 nM

Question: With CC(NC(=O)C(C)(Cc1c[nH]c2ccccc12)NCc1cc2ccccc2o1)c1ccc(Cl)cc1 (stereo not drawn) [compound 30, 2-[(Benzofuran-2-ylmethyl)-amino]-N-[1-(4-chloro-phenyl)-ethyl]-3-(1H-indol-3-yl)-2-methyl-propionamide] as the compound, how does the IC50 read?
Answer: 17 nM

Question: With CC(Cc1c[nH]c2ccccc12)(NCc1cc2ccccc2o1)C(=O)NCC(c1ccccc1)c1ccccn1 (stereo not drawn) [compound 80, 2-[(Benzofuran-2-ylmethyl)-amino]-3-(1H-indol-3-yl)-2-methyl-N-(2-phenyl-2-pyridin-2-yl-ethyl)-propionamide] as the compound, how does the IC50 read?
Answer: > 10000 nM

Question: Which IC50 does the source give for “2-[(Benzofuran-2-ylmethyl)-amino]-N-(5-hydroxy-4-oxo-4H-pyran-2-ylmethyl)-3-(1H-indol-3-yl)-2-methyl-propionamide [compound 164]” here?
Answer: > 10000 nM

Question: For CC(Cc1c[nH]c2ccccc12)(NCc1cc2ccccc2o1)C(=O)NCc1ccccc1 (stereo not drawn) [compound 28, 2-[(Benzofuran-2-ylmethyl)-amino]-N-benzyl-3-(1H-indol-3-yl)-2-methyl-propionamide], which IC50 is on record?
Answer: 44 nM

From US6472418B1, “Non-peptide NK1 receptors antagonists” (Warner-Lambert Company, priority 1998, dated 2002)
